From ChEMBL document CHEMBL1201862, “PubChem BioAssay data set” (2004)
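These data come from cells grown in 96-well plates and exposed to compound for 48 hours at five concentrations. Abbreviation: GI50, concentration required for 50% inhibition of growth.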 The source made the active and inactive calls. Cut-off read from the data, not from the text of the source: active = GI50 up to about 1.1 µM and inactive = higher.

Experiments:
Assay in all cases: growth of human tumour cells (NCI), 48 h
K562 = system: K562
SF-539 = system: SF-539
LXFL 529 = system: LXFL 529
U-251 = system: U-251
SF-268 = system: SF-268
COLO 205 = system: COLO 205
LOX IMVI = system: LOX IMVI
IGROV-1 = system: IGROV-1
SNB-75 = system: SNB-75
SF-295 = system: SF-295
ACHN = system: ACHN
OVCAR-5 = system: OVCAR-5
HCC 2998 = system: HCC 2998
HCT-15 = system: HCT-15
DMS-114 = system: DMS-114
NCI-H460 = system: NCI-H460
M14 = system: M14
SK-MEL-5 = system: SK-MEL-5
NCI-H226 = system: NCI-H226
EKVX = system: EKVX
A498 = system: A498
CCRF-CEM = system: CCRF-CEM
RXF 631 = system: RXF 631
DMS-273 = system: DMS-273
SR = system: SR
HOP-92 = system: HOP-92
OVCAR-4 = system: OVCAR-4
RXF 393 = system: RXF 393
NCI-H23 = system: NCI-H23
MOLT-4 = system: MOLT-4
HCT-116 = system: HCT-116
TK-10 = system: TK-10
HL-60 = system: HL-60
OVCAR-8 = system: OVCAR-8
UACC-257 = system: UACC-257
SNB-78 = system: SNB-78
XF498 = system: XF498
SN12C = system: SN12C
KM12 = system: KM12
A549 = system: A549
SNB-19 = system: SNB-19
CAKI-1 = system: CAKI-1
SW-620 = system: SW-620
HT-29 = system: HT-29
RPMI-8226 = system: RPMI-8226
HOP-18 = system: HOP-18
SK-MEL-2 = system: SK-MEL-2
DLD-1 = system: DLD-1
SK-MEL-28 = system: SK-MEL-28
Malme-3M = system: Malme-3M
KM-20L2 = system: KM-20L2
HOP-62 = system: HOP-62
NCI-H522 = system: NCI-H522
UO-31 = system: UO-31
786-0 = system: 786-0
OVCAR-3 = system: OVCAR-3
UACC-62 = system: UACC-62
SK-OV-3 = system: SK-OV-3
M19-MEL = system: M19-MEL

CC1C[C@]2(C[C@@H](C)C(=O)O2)OC2CC3(C)C4CCC5C(C)(C)OC(=O)CC[C@@]56C[C@@]46CC[C@]3(C)C12 (stereo partly drawn)
GI50 (K562): 64.9 µM (inactive) | GI50 (SF-539): > 100 µM (inactive) | GI50 (LXFL 529): > 100 µM (inactive) | GI50 (U-251): > 100 µM (inactive) | GI50 (SF-268): > 100 µM (inactive) | GI50 (COLO 205): > 100 µM (inactive) | GI50 (LOX IMVI): > 100 µM (inactive) | GI50 (IGROV-1): > 100 µM (inactive) | GI50 (SNB-75): > 100 µM (inactive) | GI50 (SF-295): > 100 µM (inactive) | GI50 (ACHN): > 100 µM (inactive) | GI50 (OVCAR-5): > 100 µM (inactive) | GI50 (HCC 2998): > 100 µM (inactive) | GI50 (HCT-15): > 100 µM | GI50 (DMS-114): > 100 µM (inactive) | GI50 (NCI-H460): > 100 µM (inactive) | GI50 (M14): > 100 µM (inactive) | GI50 (SK-MEL-5): > 100 µM (inactive) | GI50 (NCI-H226): > 100 µM (inactive) | GI50 (EKVX): > 100 µM (inactive) | GI50 (A498): > 100 µM (inactive) | GI50 (CCRF-CEM): > 100 µM (inactive) | GI50 (RXF 631): > 100 µM (inactive) | GI50 (DMS-273): > 100 µM (inactive) | GI50 (SR): > 100 µM (inactive) | GI50 (HOP-92): > 100 µM (inactive) | GI50 (OVCAR-4): > 100 µM (inactive) | GI50 (RXF 393): > 100 µM (inactive) | GI50 (NCI-H23): > 100 µM (inactive) | GI50 (MOLT-4): > 100 µM (inactive) | GI50 (HCT-116): > 100 µM (inactive) | GI50 (TK-10): > 100 µM (inactive) | GI50 (HL-60): 69.8 µM (inactive) | GI50 (OVCAR-8): > 100 µM (inactive) | GI50 (UACC-257): > 100 µM (inactive) | GI50 (SNB-78): > 100 µM (inactive) | GI50 (XF498): > 100 µM (inactive) | GI50 (SN12C): > 100 µM (inactive) | GI50 (KM12): > 100 µM (inactive) | GI50 (A549): > 100 µM (inactive) | GI50 (SNB-19): > 100 µM (inactive) | GI50 (CAKI-1): > 100 µM (inactive) | GI50 (SW-620): > 100 µM (inactive) | GI50 (HT-29): > 100 µM (inactive) | GI50 (RPMI-8226): > 100 µM (inactive) | GI50 (HOP-18): > 100 µM (inactive) | GI50 (SK-MEL-2): > 100 µM (inactive) | GI50 (DLD-1): > 100 µM (inactive) | GI50 (SK-MEL-28): > 100 µM (inactive) | GI50 (Malme-3M): > 100 µM (inactive)

Cc1ccccc1NC(=O)C(=O)C(C#N)c1ccc(Cl)cc1 (stereo not drawn)
GI50 (K562): 29.1 µM (inactive) | GI50 (SF-539): 30.4 µM (inactive) | GI50 (LXFL 529): 51.4 µM (inactive) | GI50 (U-251): 51.1 µM (inactive) | GI50 (SF-268): 69.8 µM (inactive) | GI50 (KM-20L2): 33.6 µM (inactive) | GI50 (HOP-62): > 100 µM (inactive) | GI50 (COLO 205): 31.3 µM (inactive) | GI50 (LOX IMVI): 17.3 µM (inactive) | GI50 (IGROV-1): 63.7 µM (inactive) | GI50 (SNB-75): > 100 µM (inactive) | GI50 (SF-295): 64.3 µM (inactive) | GI50 (NCI-H522): 50.7 µM (inactive) | GI50 (ACHN): 74.1 µM (inactive) | GI50 (OVCAR-5): 54 µM (inactive) | GI50 (UO-31): 57.7 µM (inactive) | GI50 (HCC 2998): 19.6 µM (inactive) | GI50 (HCT-15): 18.7 µM | GI50 (DMS-114): 39.8 µM (inactive) | GI50 (NCI-H460): 21.3 µM (inactive) | GI50 (M14): 45.9 µM (inactive) | GI50 (SK-MEL-5): 41.8 µM (inactive) | GI50 (NCI-H226): 78.5 µM (inactive) | GI50 (EKVX): > 100 µM (inactive) | GI50 (A498): > 100 µM (inactive) | GI50 (CCRF-CEM): 64 µM (inactive) | GI50 (RXF 631): 34.7 µM (inactive) | GI50 (DMS-273): 33 µM (inactive) | GI50 (786-0): 28 µM (inactive) | GI50 (HOP-92): 45.8 µM (inactive) | GI50 (RXF 393): > 100 µM (inactive) | GI50 (NCI-H23): 56.5 µM (inactive) | GI50 (MOLT-4): 52.6 µM (inactive) | GI50 (HCT-116): 34 µM (inactive) | GI50 (TK-10): 81.5 µM (inactive) | GI50 (HL-60): 27.8 µM (inactive) | GI50 (OVCAR-8): 46.6 µM (inactive) | GI50 (UACC-257): > 100 µM (inactive) | GI50 (SNB-78): > 100 µM (inactive) | GI50 (XF498): 33.8 µM (inactive) | GI50 (SN12C): 44.9 µM (inactive) | GI50 (KM12): 44.6 µM (inactive) | GI50 (A549): 95.5 µM (inactive) | GI50 (SNB-19): 63.2 µM (inactive) | GI50 (CAKI-1): > 100 µM (inactive) | GI50 (OVCAR-3): > 100 µM (inactive) | GI50 (SW-620): 15.4 µM (inactive) | GI50 (HT-29): 28.8 µM (inactive) | GI50 (UACC-62): 37.4 µM (inactive) | GI50 (RPMI-8226): 22.6 µM (inactive) | GI50 (HOP-18): 47.8 µM (inactive) | GI50 (SK-MEL-2): 56.5 µM (inactive) | GI50 (DLD-1): 41.8 µM (inactive) | GI50 (SK-MEL-28): 67.5 µM (inactive) | GI50 (Malme-3M): > 100 µM (inactive) | GI50 (SK-OV-3): > 100 µM (inactive)

CCCNC(/C=C/[Si](C)(C)C)CO.CCCNCC(O)/C=C/[Si](C)(C)C (stereo not drawn)
GI50 (K562): > 100 µM (inactive) | GI50 (SF-539): > 100 µM (inactive) | GI50 (LXFL 529): > 100 µM (inactive) | GI50 (U-251): > 100 µM (inactive) | GI50 (KM-20L2): > 100 µM (inactive) | GI50 (COLO 205): 98.2 µM (inactive) | GI50 (LOX IMVI): > 100 µM (inactive) | GI50 (IGROV-1): > 100 µM (inactive) | GI50 (SNB-75): 40.6 µM (inactive) | GI50 (SF-295): > 100 µM (inactive) | GI50 (NCI-H522): > 100 µM (inactive) | GI50 (ACHN): > 100 µM (inactive) | GI50 (OVCAR-5): > 100 µM (inactive) | GI50 (UO-31): > 100 µM (inactive) | GI50 (HCC 2998): > 100 µM (inactive) | GI50 (HCT-15): > 100 µM | GI50 (DMS-114): > 100 µM (inactive) | GI50 (NCI-H460): > 100 µM (inactive) | GI50 (M14): > 100 µM (inactive) | GI50 (SK-MEL-5): > 100 µM (inactive) | GI50 (EKVX): > 100 µM (inactive) | GI50 (A498): > 100 µM (inactive) | GI50 (CCRF-CEM): > 100 µM (inactive) | GI50 (RXF 631): > 100 µM (inactive) | GI50 (SR): > 100 µM (inactive) | GI50 (HOP-92): 36.9 µM (inactive) | GI50 (RXF 393): 95.7 µM (inactive) | GI50 (NCI-H23): > 100 µM (inactive) | GI50 (MOLT-4): 10 µM (inactive) | GI50 (HCT-116): > 100 µM (inactive) | GI50 (M19-MEL): > 100 µM (inactive) | GI50 (TK-10): > 100 µM (inactive) | GI50 (HL-60): > 100 µM (inactive) | GI50 (OVCAR-8): > 100 µM (inactive) | GI50 (UACC-257): > 100 µM (inactive) | GI50 (SNB-78): > 100 µM (inactive) | GI50 (XF498): 22 µM (inactive) | GI50 (SN12C): > 100 µM (inactive) | GI50 (KM12): > 100 µM (inactive) | GI50 (A549): > 100 µM (inactive) | GI50 (SNB-19): > 100 µM (inactive) | GI50 (OVCAR-3): > 100 µM (inactive) | GI50 (SW-620): > 100 µM (inactive) | GI50 (HT-29): > 100 µM (inactive) | GI50 (UACC-62): > 100 µM (inactive) | GI50 (RPMI-8226): 90.8 µM (inactive) | GI50 (HOP-18): > 100 µM (inactive) | GI50 (SK-MEL-2): > 100 µM (inactive) | GI50 (DLD-1): > 100 µM (inactive) | GI50 (SK-MEL-28): > 100 µM (inactive) | GI50 (Malme-3M): > 100 µM (inactive) | GI50 (SK-OV-3): > 100 µM (inactive)
